Measured values published in patent US20250066348A1, “SMALL MOLECULE INHIBITORS OF UBIQUITIN SPECIFIC PROTEASE 1 (USP1) AND USES THEREOF” (INSILICO MEDICINE IP LIMITED, priority 2021, published 2025).

Tests used:
[1] = target: T1, Human recombinant USP1/UAF1 (Homo sapiens, UniProt O94782); test: Enzymatic assay, USP1/UAF1 with Ubiquitin Rhodamine 110; type: biochemical; conditions: 2 nM USP1/UAF1, 500 nM Ubiquitin Rhodamine 110, HEPES buffer pH 8.0, 15 minutes preincubation at RT
T1 construct: purchased R&D E-568-050; host or cells: baculovirus infected Sf21 cells
Procedure: Human recombinant USP1/UAF1 expressed in baculovirus infected Sf21 cells were used (R&D, E-568-050). Test compound and/or vehicle was incubated with 2 nM of USP1/UAF1 in modified HEPES buffer pH 8.0 for 15 minutes at RT. The reaction was initiated by addition of 500 nM of Ubiquitin Rhodamine 110 (R&D, U-555-050) for kinetic reading. Slope change of fluorescence intensity was read spectrofluorimetrically at 485 nm/535 nm. Dose response of test compounds or reference compound ML-323 was analyzed by nonlinear regression of GraphPad prism software.

[2] = tested on: MDA-MB-436 cells; test: MDA-MB-436 breast cancer cell proliferation assay (CellTiter-Glo); type: cell-based; conditions: Homo sapiens, 168 h, 7 days
Procedure: MDA-MB-436 cells were grown in Leibovitz's L-15 medium with 10 μg/ml insulin, 16 μg/ml glutathione, 10% FBS. Cells were passaged at subconfluence after trypsinization and maintained in incubators at 37° C. in a humidified atmosphere with 5% CO2.
Cell proliferation was determined using CellTiter-Glo® Luminescent Cell Viability Assay (Promega, #G7573). MDA-MB-436 cells were seeded in 384-well plates and allowed to attach for 24 h. Compounds were added into 384-well plate by ECHO, and incubated at 37 C° in a humidified atmosphere with 5% CO2. After 7 days, CellTiter-Glo was added into 384 well plates, contents were mixed on an orbital shaker at […] for 2 min before centrifuging the plate for 2 min at 1000 rpm. After incubation at RT for 30 min, luminescence was read on envision.

T1 sequence (O94782 whole entry): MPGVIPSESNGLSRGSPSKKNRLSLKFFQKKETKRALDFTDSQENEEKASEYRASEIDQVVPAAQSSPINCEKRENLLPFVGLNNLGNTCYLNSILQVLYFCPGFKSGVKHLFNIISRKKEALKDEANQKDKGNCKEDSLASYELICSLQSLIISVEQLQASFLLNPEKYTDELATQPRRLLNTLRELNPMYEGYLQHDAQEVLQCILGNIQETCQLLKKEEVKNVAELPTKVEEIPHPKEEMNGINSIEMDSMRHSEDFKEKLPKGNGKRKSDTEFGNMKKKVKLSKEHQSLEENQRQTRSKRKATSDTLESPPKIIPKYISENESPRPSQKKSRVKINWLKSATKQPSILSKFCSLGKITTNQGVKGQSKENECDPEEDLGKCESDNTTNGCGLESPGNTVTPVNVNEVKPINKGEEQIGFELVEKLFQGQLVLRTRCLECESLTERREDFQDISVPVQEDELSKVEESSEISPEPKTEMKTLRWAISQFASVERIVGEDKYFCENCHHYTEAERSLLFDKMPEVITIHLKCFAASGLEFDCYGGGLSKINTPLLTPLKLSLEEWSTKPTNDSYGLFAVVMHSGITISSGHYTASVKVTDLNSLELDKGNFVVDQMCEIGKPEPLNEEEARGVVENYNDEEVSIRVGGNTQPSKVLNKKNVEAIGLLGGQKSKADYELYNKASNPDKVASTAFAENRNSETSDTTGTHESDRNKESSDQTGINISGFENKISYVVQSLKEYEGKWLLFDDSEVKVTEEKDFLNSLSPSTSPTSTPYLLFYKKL
T1 sequence (Q8TAF3 whole entry partner): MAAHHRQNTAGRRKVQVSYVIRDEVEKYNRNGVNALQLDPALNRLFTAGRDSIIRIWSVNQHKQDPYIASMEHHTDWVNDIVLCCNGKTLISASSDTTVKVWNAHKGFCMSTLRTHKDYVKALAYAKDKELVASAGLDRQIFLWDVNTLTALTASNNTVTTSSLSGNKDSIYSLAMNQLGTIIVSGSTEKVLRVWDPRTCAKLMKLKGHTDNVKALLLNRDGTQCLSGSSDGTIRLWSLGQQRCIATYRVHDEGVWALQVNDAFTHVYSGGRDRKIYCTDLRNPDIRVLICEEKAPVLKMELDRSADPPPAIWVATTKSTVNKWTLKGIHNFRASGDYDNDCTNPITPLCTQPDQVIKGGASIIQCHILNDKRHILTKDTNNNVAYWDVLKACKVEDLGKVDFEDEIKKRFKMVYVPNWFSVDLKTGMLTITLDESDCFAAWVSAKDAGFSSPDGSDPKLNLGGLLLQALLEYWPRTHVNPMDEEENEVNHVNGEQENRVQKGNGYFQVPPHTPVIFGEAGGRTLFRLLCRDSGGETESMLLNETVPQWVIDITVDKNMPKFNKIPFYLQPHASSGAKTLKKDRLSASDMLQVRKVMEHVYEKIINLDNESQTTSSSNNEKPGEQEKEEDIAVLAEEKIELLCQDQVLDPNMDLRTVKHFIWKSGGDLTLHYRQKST

IC50 [1] [nM]	IC50 [2] [nM]	SMILES
< 50	50 to 1000	COc1ncnc(C2CC2)c1-c1cc2c(cn1)cnn2Cc1ccc(-n2nc(C(F)(F)F)cc2C)cc1 [Example 1, 6-(4-cyclopropyl-6-methoxypyrimidin-5-yl)-1-(4-(5-methyl-3-(trifluoromethyl)-1H-pyrazol-1-yl)benzyl)-1H-pyrazolo[4,3-c]pyridine]
50 to 1000	50 to 1000	COc1ncnc(C2CC2)c1-c1cn2c(Cc3ccc(-n4nc(C(F)(F)F)cc4C)cc3)ncc2cn1 [Example 2, 6-(4-cyclopropyl-6-methoxypyrimidin-5-yl)-3-(4-(5-methyl-3-(trifluoromethyl)-1H-pyrazol-1-yl)benzyl) imidazo[1,5-a]pyrazine]
1000 to 10000	1000 to 10000	COc1ncnc(C2CC2)c1-c1cnc2cnn(Cc3ccc(-n4nc(C(F)(F)F)cc4C)cc3)c2n1 [Example 3, 6-(4-cyclopropyl-6-methoxypyrimidin-5-yl)-1-(4-(5-methyl-3-(trifluoromethyl)-1H-pyrazol-1-yl)benzyl)-1H-pyrazolo[3,4-b]pyrazine]
1000 to 10000		COc1ncnc(C2CC2)c1-c1cc2c(cnn2Cc2ccc(-n3nc(C(F)(F)F)cc3C)cc2)nn1 [Example 4, 6-(4-cyclopropyl-6-methoxypyrimidin-5-yl)-1-(4-(5-methyl-3-(trifluoromethyl)-1H-pyrazol-1-yl)benzyl)-1H-pyrazolo[4,3-c]pyridazine]
1000 to 10000	> 10000	COc1ncnc(C2CC2)c1-c1cn2c(Cc3ccc(-n4nc(C(F)(F)F)cc4C)cc3)nnc2cn1 [Example 5, 6-(4-cyclopropyl-6-methoxypyrimidin-5-yl)-3-(4-(5-methyl-3-(trifluoromethyl)-1H-pyrazol-1-yl)benzyl)-[1,2,4]triazolo[4,3-a]pyrazine]
> 10000		COc1ncnc(C2CC2)c1-c1cnc2cnc(Cc3ccc(-n4nc(C(F)(F)F)cc4C)cc3)n2c1 [Example 6, 3-(4-cyclopropyl-6-methoxypyrimidin-5-yl)-6-(4-(5-methyl-3-(trifluoromethyl)-1H-pyrazol-1-yl)benzyl)imidazo[1,5-a]pyrimidine]
50 to 1000	50 to 1000	COc1ncnc(C2CC2)c1-c1ncc2c(=O)n(C)n(Cc3ccc(-n4nc(C(F)(F)F)cc4C)cc3)c2n1 [Example 7, 6-(4-cyclopropyl-6-methoxypyrimidin-5-yl)-2-methyl-1-(4-(5-methyl-3-(trifluoromethyl)-1H-pyrazol-1-yl)benzyl)-1,2-dihydro-3H-pyrazolo[3,4-d]pyrimidin-3-one]
50 to 1000	50 to 1000	COc1ncnc(C2CC2)c1-c1ncc2oc(=O)n(Cc3ccc(-n4nc(C(F)(F)F)cc4C)cc3)c2n1 [Example 8, 5-(4-cyclopropyl-6-methoxypyrimidin-5-yl)-3-(4-(5-methyl-3-(trifluoromethyl)-1H-pyrazol-1-yl)benzyl) oxazolo[4,5-d]pyrimidin-2 (3H)-one]
50 to 1000	50 to 1000	COc1ncnc(C2CC2)c1-c1ncc2[nH]c(=S)n(Cc3ccc(-n4nc(C(F)(F)F)cc4C)cc3)c2n1 [Example 9, 2-(4-cyclopropyl-6-methoxypyrimidin-5-yl)-9-(4-(5-methyl-3-(trifluoromethyl)-1H-pyrazol-1-yl)benzyl)-7,9-dihydro-8H-purine-8-thione]
< 50	< 50	COc1ncnc(C2CC2)c1-c1ncc2cnn(CC34C5C6C3C3C4C5C63c3nc(C(F)(F)F)cn3C)c2n1 (stereo not drawn) [Example 10, 6-(4-cyclopropyl-6-methoxypyrimidin-5-yl)-1-((4-(1-methyl-4-(trifluoromethyl)-1H-imidazol-2-yl)cuban-1-yl)methyl)-1H-pyrazolo[3,4-d]pyrimidine]
< 50	< 50	COc1ncnc(C2CC2)c1-c1ncc2cnn(CC34C5C6C3C3C4C5C63c3nc(C(F)(F)F)cn3C(C)C)c2n1 (stereo not drawn) [Example 11, 6-(4-cyclopropyl-6-methoxypyrimidin-5-yl)-1-((4-(1-isopropyl-4-(trifluoromethyl)-1H-imidazol-2-yl)cuban-1-yl)methyl)-1H-pyrazolo[3,4-d]pyrimidine]
50 to 1000		COc1ncnc(C2CC2)c1-c1cc2c(cn1)cnn2Cc1ccc(-n2nc(C(F)(F)F)cc2C)nc1 [Example 12, 6-(4-cyclopropyl-6-methoxypyrimidin-5-yl)-1-((6-(5-methyl-3-(trifluoromethyl)-1H-pyrazol-1-yl)pyridin-3-yl)methyl)-1H-pyrazolo[4,3-c]pyridine]
